Measurements from patent publication US7528164B2, “Substituted 4-aryl-4h-pyrrolo[2,3-h]chromenes and analogs as activators of caspases and inducers of apoptosis and the use thereof” (Cytovia, Inc., priority 2002, dated 2009).
Read-outs that look alike come from different tables or passages of the source.

How the values were obtained:
[1] = system: T-47D; assay: Caspase cascade activation assay in T-47D cells (N-(Ac-DEVD)-N'-ethoxycarbonyl-R110 fluorogenic substrate); assay type: cell-based; details: T-47D human breast cancer cells, 24 h incubation; for EC50: sigmoidal dose-response, read-out: Caspase potency EC50; for Caspase activity (Ratio): ratio of net RFU of test compound to control
Protocol: (§1) Human breast cancer cell lines T-47D and ZR-75-1 were grown according to media component mixtures designated by American Type Culture Collection+10% FCS (Invitrogen Corporation), in a 5% CO2-95% humidity incubator at 37° C. T-47D and ZR-75-1 cells were maintained at a cell density between 30 and 80% confluency at a cell density of 0.1 to 0.6×10^6 cells/mL. Cells were harvested at 600×g and resuspended at 0.65×10^6 cells/mL into appropriate media+10% FCS. An aliquot of 45 μl of cells was added to a well of a 96-well microtiter plate containing 5 μl of a 10% DMSO in RPMI-1640 media solution containing about […] of 2-amino-3-cyano-4-(5-methyl-pyridin-3-yl)-7-methyl-4H-pyrrolo[2,3-h]chromene (Example 10) or other test compound (0.016 to 1 μM final). An aliquot of 45 μl of cells was added to a well of a 96-well microtiter plate containing 5 μl of a 10% DMSO in RPMI-1640 media solution without test compound as the control sample. The samples were mixed by agitation and then incubated at 37° C. for 24 h in a 5% CO2-95% humidity incubator. After incubation, the samples were removed from the incubator and 50 μl of a solution containing 20 μM of N-(Ac-DEVD)-N′-ethoxycarbonyl-R110 (SEQ ID No:1) fluorogenic substrate (Cytovia, Inc.; U.S. Pat. No. 6,335,429), 20% sucrose (Sigma), 20 mM DTT (Sigma), 200 mM NaCl (Sigma), 40 mM Na PIPES buffer pH 7.2 (Sigma), and 500 μg/ml lysolecithin (Calbiochem) was added. The samples were mixed by agitation and incubated at room temperature. Using a fluorescent plate reader (Model 1420 Wallac Instruments), an initial reading (T=0) was made approximately 1-2 min after addition of the substrate solution, employing excitation at 485 nm and emission at 530 nm, to determine the background fluorescence of the control sample. After the 3 h incubation, the samples were read for fluorescence as above (T=3 h).
(§2) The Relative Fluorescence Unit values (RFU) were used to calculate the sample readings as follows: RFU(T=3h)−Control RFU(T=0)=Net RFU(T=3h) The activity of caspase cascade activation was determined by the ratio of the net RFU value for 2-amino-3-cyano-4-(5-methyl-pyridin-3-yl)-7-methyl-4H-pyrrolo[2,3-h]chromene or other test compound to that of control samples. The EC50 (nM) was determined by a sigmoidal dose-response calculation (Prism 2.0, GraphPad Software Inc.).

[2] = system: ZR-75-1; assay: Caspase cascade activation assay in ZR-75-1 cells (N-(Ac-DEVD)-N'-ethoxycarbonyl-R110 fluorogenic substrate); assay type: cell-based; details: ZR-75-1 human breast cancer cells, 24 h incubation; for Caspase activity (Ratio): ratio of net RFU of test compound to control; for EC50: sigmoidal dose-response, read-out: Caspase potency EC50
Protocol: as §1, §2

Compound | EC50 ([1]; T47D) [µM] | Caspase activity (Ratio) [1] | Caspase activity (Ratio) [2] | EC50 [2] [µM] | EC50 [1] [µM]
COc1cccc(C2C(C#N)=C(N)Oc3c2ccc2c3ccn2C)c1 (stereo not drawn) [Example 28, 2-Amino-3-cyano-4-(3-methoxyphenyl)-7-methyl-4H-pyrrolo[2,3-h]chromene] | 0.0072 | 4.6 | 6.3 | 0.0033 | –
Cn1ccc2c3c(ccc21)C(c1cccc(Br)c1)C(C#N)=C(N)O3 (stereo not drawn) [Example 29, 2-Amino-3-cyano-4-(3-bromophenyl)-7-methyl-4H-pyrrolo[2,3-h]chromene] | 0.012 | 3.3 | 6.3 | 0.0057 | –
Cn1ccc2c3c(ccc21)C(c1cc(F)cc(F)c1)C(C#N)=C(N)O3 (stereo not drawn) [Example 30, 2-Amino-3-cyano-4-(3,5-difluorophenyl)-7-methyl-4H-pyrrolo[2,3-h]chromene] | 0.0073 | 3.6 | 5.6 | 0.0034 | –
COc1cc(C2C(C#N)=C(N)Oc3c2ccc2c3ccn2C)cc(I)c1OC (stereo not drawn) [Example 31, 2-Amino-3-cyano-4-(4,5-dimethoxy-3-iodophenyl)-7-methyl-4H-pyrrolo[2,3-h]chromene] | 0.0049 | 6.3 | 4.3 | 0.0037 | –
Cn1ccc2c3c(ccc21)C(c1cccc(C#N)c1)C(C#N)=C(N)O3 (stereo not drawn) [Example 32, 2-Amino-3-cyano-4-(3-cyanophenyl)-7-methyl-4H-pyrrolo[2,3-h]chromene] | 0.0069 | 5.3 | 3.6 | 0.0029 | –
COc1cc(C2C(C#N)=C(N)Oc3c2ccc2c3ccn2CO)cc(OC)c1OC (stereo not drawn) [Example 33, 2-Amino-3-cyano-4-(3,4,5-trimethoxyphenyl)-7-hydroxymethyl-4H-pyrrolo[2,3-h]chromene] | 0.0062 | 4.3 | 3.0 | 0.0033 | –
COc1cc(OC)cc(C2C(C#N)=C(N)Oc3c2ccc2c3ccn2CO)c1 (stereo not drawn) [Example 34, 2-Amino-3-cyano-4-(3,5-dimethoxyphenyl)-7-hydroxymethyl-4H-pyrrolo [2,3-h]chromene] | 0.0071 | 3.3 | 3.9 | 0.0065 | –
CN1CCc2c1ccc1c2OC(N)=C(C#N)C1c1cc(F)cc(F)c1 (stereo not drawn) [Example 35, 2-Amino-3-cyano-4-(3,5-difluorophenyl)-8,9-dihydro-7-methyl-4H-pyrrolo [2,3-h]chromene] | 0.028 | 4.3 | 5.5 | 0.01 | –
Cc1cncc(C2C(C#N)=C(N)Oc3c2ccc2c3CCN2C)c1 (stereo not drawn) [Example 36, 2-Amino-4-(5-methyl-pyridin-3-yl)-3-cyano-7-methyl-8,9-dihydro-4H-pyrrolo[2,3-h]chromene] | 0.013 | 4.6 | 6.3 | 0.005 | –
Cn1ccc2c3c(ccc21)C(c1ccc([N+](=O)[O-])s1)C(C#N)=C(N)O3 (stereo not drawn) [Example 37, 2-Amino-4-(5-nitro-thiophene-2-yl)-3-cyano-7-methyl-4H-pyrrolo[2,3-h]chromene] | > 0.1 | 2.0 | 6.7 | 0.036 | –
CCC=CCC=CCC=CCC=CCC=CCC=CCCC(=O)OCn1ccc2c3c(ccc21)C(c1cc(Br)c(OC)c(OC)c1)C(C#N)=C(N)O3 (stereo not drawn) [Example 38, 4,7,10,13,16,19-Docosahexaenoic acid {2-Amino-4-(3-bromo-4,5-dimethoxy-phenyl)-3-cyano-4H-pyrrolo[2,3-h]chromene}-7-ylmethyl ester] | – | 5.2 | 6.9 | 0.029 | 0.055
CCC=CCC=CCC=CCC=CCC=CCC=CCCC(=O)OCn1ccc2c3c(ccc21)C(c1cncc(C)c1)C(C#N)=C(N)O3 (stereo not drawn) [Example 39, 4,7,10,13,16,19-Docosahexaenoic acid {2-Amino-3-cyano-4-(5-methyl-pyridin-3-yl)-4H-pyrrolo[2,3-h]chromene}-7-ylmethyl ester] | – | 3.7 | 6.2 | 0.026 | 0.051
Cn1ccc2c3c(ccc21)C(c1cccc(F)c1)C(C#N)=C(N)O3 (stereo not drawn) [Example 40A, 2-Amino-3-cyano-4-(3-fluorophenyl)-7-methyl-4H-pyrrolo[2,3-h]chromene] | 0.014 | 5.1 | 4.1 | 0.0072 | –
Cn1ccc2c3c(ccc21)C(c1ccc(C#N)cc1)C(C#N)=C(N)O3 (stereo not drawn) [Example 40B, 2-Amino-3-cyano-4-(4-cyanophenyl)-7-methyl-4H-pyrrolo[2,3-h]chromene] | 0.055 | 4.9 | 4.2 | 0.035 | –
Cn1ccc2c3c(ccc21)C(c1cccc(Cl)c1)C(C#N)=C(N)O3 (stereo not drawn) [Example 40C, 2-Amino-3-cyano-4-(3-chlorophenyl)-7-methyl-4H-pyrrolo[2,3-h]chromene] | 0.014 | 4.0 | 2.7 | 0.0079 | –
Cn1ccc2c3c(ccc21)C(c1cc(Cl)cc(Cl)c1)C(C#N)=C(N)O3 (stereo not drawn) [Example 40D, 2-Amino-3-cyano-4-(3,5-dichlorophenyl)-7-methyl-4H-pyrrolo[2,3-h]chromene] | 0.025 | 3.3 | 2.9 | 0.015 | –
Cn1ccc2c3c(ccc21)C(c1ccc(Cl)c(Cl)c1)C(C#N)=C(N)O3 (stereo not drawn) [Example 40E, 2-Amino-3-cyano-4-(3,4-dichlorophenyl)-7-methyl-4H-pyrrolo[2,3-h]chromene] | > 0.1 | 1.3 | 3.2 | 0.081 | –
COc1cc(C2C(C#N)=C(N)Oc3c2ccc2c3c(C)cn2C)cc(Br)c1OC (stereo not drawn) [Example 40F, 2-Amino-3-cyano-4-(3-bromo-4,5-dimethoxyphenyl)-7,9-dimethyl-4H-pyrrolo[2,3-h]chromene] | 0.042 | 2.6 | 3.9 | 0.026 | –
Cn1ccc2c3c(ccc21)C(c1ccc(F)c(F)c1)C(C#N)=C(N)O3 (stereo not drawn) [Example 40G, 2-Amino-3-cyano-4-(3,4 difluorophenyl)-7-methyl-4H-pyrrolo[2,3-h]chromene] | 0.029 | 4.6 | 5.9 | 0.015 | –
Cn1ccc2c3c(ccc21)C(c1ccc(Cl)c(F)c1)C(C#N)=C(N)O3 (stereo not drawn) [Example 40H, 2-Amino-3-cyano-4-(3-fluoro-4-chlorophenyl)-7-methyl-4H-pyrrolo[2,3-h]chromene] | > 0.1 | 1.3 | 6.0 | 0.056 | –
Cn1ccc2c3c(ccc21)C(c1ccc(F)c(Br)c1)C(C#N)=C(N)O3 (stereo not drawn) [Example 40I, 2-Amino-3-cyano-4-(3-bromo-4-fluorophenyl)-7-methyl-4H-pyrrolo[2,3-h]chromene] | 0.029 | 3.9 | 4.4 | 0.014 | –
Cn1ccc2c3c(ccc21)C(c1ccc(F)c(C#N)c1)C(C#N)=C(N)O3 (stereo not drawn) [Example 40J, 2-Amino-3-cyano-4-(3-cyano-4-fluorophenyl)-7-methyl-4H-pyrrolo[2,3-h]chromene] | 0.029 | 3.6 | 5.8 | 0.014 | –
COc1cncc(C2C(C#N)=C(N)Oc3c2ccc2c3ccn2C)c1 (stereo not drawn) [Example 41, 2-Amino-3-cyano-4-(5-methoxy-pyridin-3-yl)-7-methyl-4H-pyrrolo[2,3-h]chromene] | 0.004 | 3.8 | 4.2 | 0.002 | –
CC(C)n1ccc2c3c(ccc21)C(c1cc(Cl)cc(Cl)c1)C(C#N)=C(N)O3 (stereo not drawn) [Example 42, 2-Amino-3-cyano-4-(3,5-dichloro-phenyl)-7-isopropyl-4H-pyrrolo [2,3-h]chromene] | > 0.1 | 1.8 | 2.6 | 0.057 | –
